In assay [1] the test system is B16 mouse melanoma cells. Put plainly: cell viability in the B16 cell-based assay (Viability, B16 IC50). Conditions: concentration causing 50% cell death, values greater than 10 represent a lack of cell death, read-out: Viability, B16 IC50. An outline of the steps:
(§1)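 Two melanoma lines, mouse B16 and human C32, were treated and surface GM3 quantified by antibody immunofluorescence for IC50. A parallel viability readout gives the concentration killing 50% of cells, with values over 10 indicating no cell death.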

The test system of assay [2] is GM3 expression on the cell surface, B16 mouse melanoma cells. Put plainly: cell based phenotypic assay, cell surface GM3 by antibody mediated immunofluorescence, B16 (GM3 B16 IC50). The following applies: 50% inhibition of GM3 expression on the cell surface. An outline of the steps:
(§2)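 Both lines undergo the phenotypic GM3 assay, and viability is recorded from that same cell-based run.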

Assay [3] has as its target T1, glucosylceramide synthase (Homo sapiens, UniProt Q16739).
T1 construct: Microsomes were isolated from A375 human melanoma cells; endogenous in cells; host or cells: A375 human melanoma cells (microsomal fraction, 100,000 g pellet)
T1 sequence (Q16739 1-394): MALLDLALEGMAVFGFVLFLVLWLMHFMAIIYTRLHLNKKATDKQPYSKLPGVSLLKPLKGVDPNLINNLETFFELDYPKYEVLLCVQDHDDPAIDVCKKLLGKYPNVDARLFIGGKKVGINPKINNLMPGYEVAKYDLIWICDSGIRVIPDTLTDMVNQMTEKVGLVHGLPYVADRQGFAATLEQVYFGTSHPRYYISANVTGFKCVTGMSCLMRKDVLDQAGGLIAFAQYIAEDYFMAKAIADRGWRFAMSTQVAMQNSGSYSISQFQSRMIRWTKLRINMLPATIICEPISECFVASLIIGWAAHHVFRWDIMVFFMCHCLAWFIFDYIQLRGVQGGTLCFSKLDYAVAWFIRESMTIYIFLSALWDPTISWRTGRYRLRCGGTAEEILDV
Put plainly: microsomal assay measuring conversion of ceramide to glucosylceramide by HPLC (GCS IC50). It counts as biochemical. Conditions: concentration causing 50% inhibition of glucosylceramide synthase activity. The method, boiled down:
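Microsomal preparation assayed for glucosylceramide synthase by direct HPLC measurement of ceramide conversion to glucosylceramide. GCS IC50 is the compound concentration giving 50% inhibition of enzyme activity.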

In assay [4] the test system is C32 human melanoma cells. The assay is described as follows: cell viability in the C32 cell-based assay (Viability, C32 IC50). The method, boiled down: as §1
Assay [5] concerns GM3 expression on the cell surface, C32 human melanoma cells. The assay is described as follows: cell based phenotypic assay, cell surface GM3 by antibody mediated immunofluorescence, C32 (GM3 C32 IC50). The following applies: 50% inhibition of GM3 expression on the cell surface. The method, boiled down:
as §2

Where [6] appears, read: Mus musculus, B16 mouse melanoma cells, read-out: GM3 B16 IC50.
Setting [7] is: Homo sapiens, C32, C32 cells; concentration causing 50% cell death; values greater than 10 represent a lack of cell death; read-out: Viability, C32 IC50.
Setting [8] is: Homo sapiens, C32 human melanoma cells, read-out: GM3 C32 IC50.

Where two headings read alike, the source gives them in different places.

By IC50 is commonly meant the concentration that gives 50% inhibition. With `O=C(N[C@@H]1CN2CCC1CC2)C1(F)CCN(c2nccc(-c3ccc(OCCF)cc3)n2)CC1` [Example 88, (S)-4-Fluoro-1-(4-(4-(2-fluoroethoxy)phenyl)pyrimidin-2-yl)-N-(quinuclidin-3-yl)piperidine-4-carboxamide], the IC50 in assay [1] (Mus musculus, B16, B16 cells) is at least 10000 nM; in assay [2] (setting [6]), 56.8 nM; in assay [3] it was 1.68 nM; in assay [4] (setting [7]), 1000 nM; in assay [5] (setting [8]) it was 0.252 nM.
In the same order, the values of `O=C(NC1CN2CCC1CC2)C1CCN(c2nccc(-c3ccc(F)cc3)n2)CC1` (stereo not drawn) [Example 45, 1-(4-(4-Fluorophenyl)pyrimidin-2-yl)-N-(quinuclidin-3-yl)piperidine-4-carboxamide] are at least 10000 nM, 125 nM, 2.67 nM, 1000 nM and 0.457 nM.
As to `COCCOc1ccc(-c2nc(N3CCC(F)(C(=O)NC4(C)CCN5CCC4CC5)CC3)ncc2F)cc1` (stereo not drawn) [Example 91, 4-Fluoro-1-(5-fluoro-4-(4-(2-methoxyethoxy)phenyl)pyrimidin-2-yl)-N-(4-methyl-1-azabicyclo[3.2.2]nonan-4-yl)piperidine-4-carboxamide], the IC50 in assay [1] (Mus musculus, B16, B16 cells) turned out to be 2660 nM; in assay [2] (setting [6]) it was 71.4 nM; in assay [3], 2.04 nM; in assay [4] (setting [7]), 100 nM; in assay [5] (setting [8]), 0.117 nM.
In the same order, the values of `COCc1ccc(-c2nc(N3CCN(C(=O)NC4(C)CCN5CCC4CC5)CC3C(C)C)ncc2F)cc1` (stereo not drawn) [Example 148, 4-(5-Fluoro-4-(4-(methoxymethyl)phenyl)pyrimidin-2-yl)-3-isopropyl-N-(4-methyl-1-azabicyclo[3.2.2]nonan-4-yl)piperazine-1-carboxamide] are 3460 nM, 390 nM, 17.4 nM, 1000 nM and 8.59 nM.
In the same order, the values of `CC1(NC(=O)C2CCN(c3ccc(-c4ccccc4)cc3)CC2)CCN2CCC1CC2` (stereo not drawn) [Example 38, 1-([1,1′-Biphenyl]-4-yl)-N-(4-methyl-1-azabicyclo[3.2.2]nonan-4-yl)piperidine-4-carboxamide] are 6620 nM, 2600 nM, 1050 nM, 6740 nM and 89.4 nM.
With `O=C(NC1CN2CCC1CC2)N1CCN(c2ccc(-c3ccccc3)cc2)CC1` (stereo not drawn) [Example 2, 4-([1,1′-Biphenyl]-4-yl)-N-(quinuclidin-3-yl)piperazine-1-carboxamide], the IC50 in assay [1] (Mus musculus, B16, B16 cells) worked out at 5280 nM; in assay [2] (setting [6]), 1600 nM; in assay [3], 6930 nM; in assay [4] (setting [7]), 7580 nM; in assay [5] (setting [8]) it was 667 nM.
With `COCCOCc1ccc(-c2nc(N3CCC(C(=O)NC4(C)CCN5CCC4CC5)CC3)ncc2F)cc1` (stereo not drawn) [Example 58, 1-(5-Fluoro-4-(4-((2-methoxyethoxy)methyl)phenyl)pyrimidin-2-yl)-N-(4-methyl-1-azabicyclo[3.2.2]nonan-4-yl)piperidine-4-carboxamide], the IC50 in assay [1] (Mus musculus, B16, B16 cells) is at least 10000 nM; in assay [2] (setting [6]), 40.5 nM; in assay [3] it was 3.39 nM; in assay [4] (setting [7]), 1000 nM; in assay [5] (setting [8]), 0.17 nM.
As for `O=C(NC1CN2CCC1CC2)N1CCN(c2ccccc2)CC1` (stereo not drawn) [Example 7, 4-Phenyl-N-(quinuclidin-3-yl)piperazine-1-carboxamide], the half-maximal inhibitory concentration (IC50) in assay [1] (Mus musculus, B16, B16 cells) was at least 10000 nM; in assay [2] (setting [6]) it was over 10000 nM; in assay [3], 12200 nM; in assay [4] (setting [7]) it was at least 10000 nM; in assay [5] (setting [8]), 7080 nM.
With `CC(C)(NC(=O)NC1(C)CCN2CCC1CC2)c1ccc(-c2ccc(OCCn3ccnn3)cc2)cc1` (stereo not drawn) [Example 185, 1-(2-(4′-(2-(1H-1,2,3-Triazol-1-yl)ethoxy)-[1,1′-biphenyl]-4-yl)propan-2-yl)-3-(4-methyl-1-azabicyclo[3.2.2]nonan-4-yl)urea], the IC50 in assay [1] (Mus musculus, B16, B16 cells) was 3160 nM; in assay [2] (setting [6]), 99.9 nM; in assay [3], 12.9 nM; in assay [4] (setting [7]), 1000 nM; in assay [5] (setting [8]), 3.87 nM.
In the case of `C[C@@H]1CN(C(=O)NC2(C)CCN3CCC2CC3)CCN1c1nccc(-c2ccccc2)n1` (single isomer, unassigned) [Example 138], the IC50 in assay [1] (Mus musculus, B16, B16 cells) is 9310 nM; in assay [2] (B16 mouse melanoma cells, read-out: GM3 B16 IC50) it was over 10000 nM; in assay [3], 902 nM; in assay [4] (C32 cells; concentration causing 50% cell death; values greater than 10 represent a lack of cell death; read-out: Viability, C32 IC50), 3160 nM; in assay [5] (C32 human melanoma cells, read-out: GM3 C32 IC50) it was 63.6 nM.
As to `CC(C)(NC(=O)OC1CCN2CCC1CC2)c1ccc(-c2ccc(C(=O)N3CC(F)(F)C3)cc2)cc1` (stereo not drawn) [Example 274, 1-Aza-bicyclo[3.2.2]nonan-4-yl 2-(4′-(3,3-difluoroazetidine-1-carbonyl)biphenyl-4-yl)propan-2-ylcarbamate], the IC50 in assay [1] (Mus musculus, B16, B16 cells) was at least 10000 nM; in assay [2] (setting [6]) it was 67.3 nM; in assay [3], 30.4 nM; in assay [4] (setting [7]), 1000 nM; in assay [5] (setting [8]), 4.78 nM.
In the same order, the values of `CC1(NC(=O)C2(F)CCN(c3nccc(Oc4ccc(C#N)cc4)n3)CC2)CCN2CCC1CC2` (stereo not drawn) [Example 120, 1-(4-(4-Cyanophenoxy)pyrimidin-2-yl)-4-fluoro-N-(4-methyl-1-azabicyclo[3.2.2]nonan-4-yl)piperidine-4-carboxamide] are at least 10000 nM, 18.8 nM, 4.12 nM, 316 nM and 0.332 nM.
In the same order, the values of `COCCOCc1ccc(-c2ccc(C(C)(C)NC(=O)N3CCN4CCC3CC4)cc2)cc1` [Example 202, N-(2-(4′-((2-Methoxyethoxy)methyl)-[1,1′-biphenyl]-4-yl)propan-2-yl)-1,4-diazabicyclo[3.2.2]nonane-4-carboxamide] are at least 10000 nM, 933 nM, 2350 nM, at least 10000 nM and 154 nM.
Turning to `O=C(N1CCN(c2cccc(-c3ccccc3)c2)CC1)N1CCN2CCC1CC2` [Example 17, (4-([1,1′-Biphenyl]-3-yl)piperazin-1-yl)(1,4-diazabicyclo[3.2.2]nonan-4-yl)methanone], the concentration for half-maximal inhibition (IC50) in assay [1] (Mus musculus, B16, B16 cells) is at least 10000 nM; in assay [2] (setting [6]), 6310 nM; in assay [3] it was 12200 nM; in assay [4] (setting [7]) it was at least 10000 nM; in assay [5] (setting [8]) it was 6360 nM.
As to `COCCCOc1ccc(C#CC(C)(C)NC(=O)OC2CN3CCC2CC3)cc1` (stereo not drawn) [Example 331, Quinuclidin-3-yl (4-(4-(3-methoxypropoxy)phenyl)-2-methylbut-3-yn-2-yl)carbamate], the IC50 in assay [1] (B16 cells) was at least 10000 nM; in assay [2] (Mus musculus, read-out: GM3 B16 IC50, B16 mouse melanoma cells), 1760 nM; in assay [3], 1330 nM; in assay [4] (read-out: Viability, C32 IC50; C32 cells; concentration causing 50% cell death; values greater than 10 represent a lack of cell death), at least 10000 nM; in assay [5] (Homo sapiens, read-out: GM3 C32 IC50, C32 human melanoma cells), 118 nM.
`CC(C)(NC(=O)NC1(C)CCN2CCC1CC2)c1cccc(Oc2cccc(C(=O)N3CCOCC3)c2)c1` (stereo not drawn) [Example 276, 1-(4-Methyl-1-azabicyclo[3.2.2]nonan-4-yl)-3-(2-(3-(3-(morpholine-4-carbonyl)phenoxy)phenyl)propan-2-yl)urea]: the IC50 in assay [1] (Mus musculus, B16, B16 cells) is at least 10000 nM; in assay [2] (setting [6]), 1530 nM; in assay [3] it was 20 nM; in assay [4] (setting [7]), 3160 nM; in assay [5] (setting [8]) it was 29.6 nM.
Taken in the same sequence, the figures for `COCc1ccc(-c2ccnc(N3CCC(F)(C(=O)N[C@]4(C)CN5CCC4CC5)CC3)n2)cc1` [Example 81, (S)-4-Fluoro-1-(4-(4-(methoxymethyl)phenyl)pyrimidin-2-yl)-N-(3-methylquinuclidin-3-yl)piperidine-4-carboxamide] were at least 10000 nM, 48.1 nM, 2.3 nM, 316 nM and 0.222 nM.
`CCC1(NC(=O)NC2(c3ccc(-c4ccc(OCCOC)cc4)cc3)CC2)CN2CCC1CC2` (stereo not drawn) [Example 164, 1-(3-Ethylquinuclidin-3-yl)-3-(1-(4′-(2-methoxyethoxy)-[1,1′-biphenyl]-4-yl)cyclopropyl)urea]: the half-maximal inhibitory concentration (IC50) amounted to 1000 nM in assay [1] (Mus musculus, B16, B16 cells); 2.51 nM in assay [2] (setting [6]); 6.16 nM in assay [3]; 173 nM in assay [4] (setting [7]); 0.205 nM in assay [5] (setting [8]).

These data come from patent US12060349B2, “Glucosylceramide synthase inhibitors” (Genzyme Corporation, priority 2012, dated 2024).
